Laboratory results reported in patent US20090264384A1, “INDOLE, BENZIMIDAZOLE, AND BENZOLACTAM BORONIC ACID COMPOUNDS, ANALOGS THEREOF AND METHODS OF USE THEREOF” (Nuada, Inc., priority 2004, published 2009).

Key:
[1] = tested on: colitis provoked by trinitrobenzene sulphonic acid (TNBS); assay: Rat model of colitis provoked by TNBS, 3 days, treatment from Day −1 (CCI-7308); format: in vivo; details: vs CMC group
Text: In the study, colonic macroscopic injury has been assessed, as has colonic weight as a reflection of colonic oedema, along with determination of MPO activity (Bradley et al, 1982) as an index of white cell infiltration for the evaluation of tissue injury. The methods and protocol used were substantially similar to those in Example 39, with some differences described below. TNBS Challenge—Male Wistar rats (270-330 g) were randomised into groups of 10-11 before commencement of the study. The following primary parameters were measured in the study: In addition, the weight of the colonic segment was assessed as an indirect and non-specific marker of oedema. The body weight of the animals was also determined and expressed as % change from the day of challenge. Treatments. All challenged groups were dosed orally twice daily from Day −1. The groups for study were: Colon homogenates for cytokine measurements. […] Tissue homogenates were lysed for 30 min. on ice, and then centrifuged (10 min., 14, 000×g). The aliquots of the supernatant were stored at −20° C. until use (Ten Hove et al., 2001). Tumour Necrosis Factor-a Activity. The TNF-α levels were determined with quantitative TNF-α solid-phase Enzyme Linked ImmunoSorbent Assay (ELISA), which is based on the sandwich principle (HyCult biotechnology b. V;. Cat number: […] At the end of the ELISA assay, the samples were measured spectrophotometrically (Benchmark Microplate reader, Bio-Rad Lab; λ=450 nm). The samples were diluted 2 or 4 times with the sample buffer included in the kit. The TNF-α values were expressed as pg/mg protein. This commercially available kit (Hycult Biotechnology b.v. Uden, The Netherlands. Catalogue number: […]

[2] = tested on: Na^+ channel (site 2); format: binding, rat; details: 1.0E−05 M
[3] = target: T1, AT2(h) (Homo sapiens, UniProt P50052); assay: AT2(h) binding assay; details: read-out: % Inhibition of Control Specific Binding
T1 construct: expressed in transfected cells; host or cells: Hela cells
T1 sequence (P50052 whole entry): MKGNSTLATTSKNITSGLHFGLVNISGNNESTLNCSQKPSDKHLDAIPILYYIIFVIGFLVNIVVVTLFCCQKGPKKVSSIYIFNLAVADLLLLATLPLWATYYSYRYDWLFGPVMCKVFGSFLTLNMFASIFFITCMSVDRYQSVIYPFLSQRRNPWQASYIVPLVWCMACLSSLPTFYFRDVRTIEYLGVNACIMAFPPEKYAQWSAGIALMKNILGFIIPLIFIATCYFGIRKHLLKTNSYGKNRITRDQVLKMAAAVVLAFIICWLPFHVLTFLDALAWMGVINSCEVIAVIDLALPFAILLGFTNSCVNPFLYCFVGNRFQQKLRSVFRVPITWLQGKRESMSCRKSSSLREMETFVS

[4] = target: T2, Phosphodiesterase 2(h) (Homo sapiens, UniProt O00408); assay: Phosphodiesterase 2(h) enzyme assay; format: biochemical; details: 1.0E−05 M
T2 construct: differentiated U-; endogenous in cells; host or cells: differentiated U-937 cells
T2 sequence (O00408 whole entry): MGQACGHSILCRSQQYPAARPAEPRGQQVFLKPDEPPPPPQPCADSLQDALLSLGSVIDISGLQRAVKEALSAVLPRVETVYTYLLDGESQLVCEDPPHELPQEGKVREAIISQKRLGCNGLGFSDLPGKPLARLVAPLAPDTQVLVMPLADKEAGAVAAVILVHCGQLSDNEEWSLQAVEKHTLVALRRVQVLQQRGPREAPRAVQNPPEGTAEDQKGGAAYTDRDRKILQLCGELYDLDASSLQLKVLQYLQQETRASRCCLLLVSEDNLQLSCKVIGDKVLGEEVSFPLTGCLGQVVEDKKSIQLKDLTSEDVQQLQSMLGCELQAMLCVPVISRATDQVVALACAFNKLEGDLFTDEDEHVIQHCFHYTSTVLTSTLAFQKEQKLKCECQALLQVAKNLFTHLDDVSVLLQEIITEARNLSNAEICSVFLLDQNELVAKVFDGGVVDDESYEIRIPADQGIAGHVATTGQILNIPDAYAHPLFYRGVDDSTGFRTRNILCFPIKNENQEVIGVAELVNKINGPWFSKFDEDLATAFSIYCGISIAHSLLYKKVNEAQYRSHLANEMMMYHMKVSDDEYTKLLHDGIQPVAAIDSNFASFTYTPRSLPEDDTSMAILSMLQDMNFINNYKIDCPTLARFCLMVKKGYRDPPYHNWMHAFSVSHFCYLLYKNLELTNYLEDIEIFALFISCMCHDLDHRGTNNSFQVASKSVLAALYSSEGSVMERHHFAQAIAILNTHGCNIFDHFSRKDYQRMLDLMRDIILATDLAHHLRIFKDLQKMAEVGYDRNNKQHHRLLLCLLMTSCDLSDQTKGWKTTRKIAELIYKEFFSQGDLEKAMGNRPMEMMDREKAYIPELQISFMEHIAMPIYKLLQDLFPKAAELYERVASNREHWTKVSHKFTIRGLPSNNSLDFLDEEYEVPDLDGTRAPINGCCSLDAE

[5] = tested on: M (non-selective); assay: M (non-selective) binding assay; set-up: species or system rat; details: 1.0E−05 M
[6] = target: T3, Phenylethanolamine-N-methyl transferase (Bos taurus, UniProt P10938); assay: Phenylethanolamine-N-methyl transferase enzyme assay; format: biochemical, bovine; details: 1.0E−05 M
T3 construct: bovine adrenal; from tissue; host or cells: bovine adrenal medulla
T3 sequence (P10938 whole entry): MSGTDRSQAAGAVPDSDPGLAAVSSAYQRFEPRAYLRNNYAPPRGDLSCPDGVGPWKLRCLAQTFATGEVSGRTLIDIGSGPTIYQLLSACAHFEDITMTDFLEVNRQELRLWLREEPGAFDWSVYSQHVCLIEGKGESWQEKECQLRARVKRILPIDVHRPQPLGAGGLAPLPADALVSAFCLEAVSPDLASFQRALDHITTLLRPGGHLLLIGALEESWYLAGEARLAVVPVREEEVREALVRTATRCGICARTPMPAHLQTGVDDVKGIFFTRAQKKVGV

[7] = target: T4, Androgen(h) (AR) (Homo sapiens, UniProt P10275, T878A); assay: Androgen(h) (AR) binding assay; details: 1.0E−05 M; read-out: % Inhibition of Control Specific Binding
T4 construct: LNCaP cells; endogenous in cells; host or cells: LNCaP cells (cytosol)
T4 sequence (P10275 whole entry T878A): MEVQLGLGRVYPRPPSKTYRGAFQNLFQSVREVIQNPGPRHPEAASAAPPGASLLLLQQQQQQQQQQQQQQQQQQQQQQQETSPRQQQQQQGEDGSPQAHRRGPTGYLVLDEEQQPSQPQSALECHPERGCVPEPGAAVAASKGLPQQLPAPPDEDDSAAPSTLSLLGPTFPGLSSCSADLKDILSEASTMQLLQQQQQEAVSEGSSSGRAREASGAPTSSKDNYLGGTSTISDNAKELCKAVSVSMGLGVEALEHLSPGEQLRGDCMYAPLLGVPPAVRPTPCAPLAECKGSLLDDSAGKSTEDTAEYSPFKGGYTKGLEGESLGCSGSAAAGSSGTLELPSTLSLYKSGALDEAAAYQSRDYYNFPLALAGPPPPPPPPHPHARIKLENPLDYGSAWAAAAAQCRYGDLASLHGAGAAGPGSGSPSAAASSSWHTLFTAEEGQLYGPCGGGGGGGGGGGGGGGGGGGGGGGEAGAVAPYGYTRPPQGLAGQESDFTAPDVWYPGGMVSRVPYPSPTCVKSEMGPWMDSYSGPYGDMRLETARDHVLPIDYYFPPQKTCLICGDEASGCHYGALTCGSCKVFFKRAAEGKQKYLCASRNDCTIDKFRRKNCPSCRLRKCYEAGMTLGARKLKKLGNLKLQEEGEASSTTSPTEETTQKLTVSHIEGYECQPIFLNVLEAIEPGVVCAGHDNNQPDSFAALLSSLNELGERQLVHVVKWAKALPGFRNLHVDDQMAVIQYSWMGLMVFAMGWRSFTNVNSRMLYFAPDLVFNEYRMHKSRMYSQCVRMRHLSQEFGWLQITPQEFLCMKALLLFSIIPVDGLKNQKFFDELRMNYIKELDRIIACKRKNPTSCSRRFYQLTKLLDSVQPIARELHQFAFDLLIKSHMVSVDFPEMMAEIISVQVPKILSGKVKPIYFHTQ

[8] = target: T5, Estrogen(h) (ER) (Homo sapiens, UniProt P03372); assay: Estrogen(h) (ER) binding assay; details: 1.0E−05 M
T5 construct: Estrogen(h); MCF-7 cells; 17-β-estradiol; Sheen et al. (1985); endogenous in cells; host or cells: MCF-7 cells (cytosol)
T5 sequence (P03372 whole entry): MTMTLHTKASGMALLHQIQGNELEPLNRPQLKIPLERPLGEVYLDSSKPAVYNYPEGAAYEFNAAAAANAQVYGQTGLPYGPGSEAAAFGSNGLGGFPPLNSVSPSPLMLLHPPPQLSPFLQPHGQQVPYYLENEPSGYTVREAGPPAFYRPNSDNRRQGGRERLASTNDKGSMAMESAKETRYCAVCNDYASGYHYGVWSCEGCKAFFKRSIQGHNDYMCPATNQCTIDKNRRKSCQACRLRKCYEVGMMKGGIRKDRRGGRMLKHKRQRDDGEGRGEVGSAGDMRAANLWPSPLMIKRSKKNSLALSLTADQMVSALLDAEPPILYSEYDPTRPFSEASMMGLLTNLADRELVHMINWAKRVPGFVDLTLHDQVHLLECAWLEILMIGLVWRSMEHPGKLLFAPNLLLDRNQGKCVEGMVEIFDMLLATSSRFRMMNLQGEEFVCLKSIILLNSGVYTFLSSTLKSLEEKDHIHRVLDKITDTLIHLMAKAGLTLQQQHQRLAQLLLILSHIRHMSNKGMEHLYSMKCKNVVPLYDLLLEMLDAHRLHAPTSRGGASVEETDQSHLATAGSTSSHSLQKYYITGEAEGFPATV

[9] = target: T6, Phosphodiesterase 5(h) (Homo sapiens, UniProt O76074); assay: Phosphodiesterase 5(h) enzyme assay; format: biochemical; details: 1.0E−05 M
T6 construct: human platelets; from tissue; host or cells: human platelets

[10] = target: T7, V1a(h) (Homo sapiens, UniProt P37288); assay: V1a(h) binding assay; details: 1.0E−05 M; read-out: % Inhibition of Control Specific Binding
T7 construct: expressed in transfected cells; host or cells: CHO cells
T7 sequence (P37288 whole entry): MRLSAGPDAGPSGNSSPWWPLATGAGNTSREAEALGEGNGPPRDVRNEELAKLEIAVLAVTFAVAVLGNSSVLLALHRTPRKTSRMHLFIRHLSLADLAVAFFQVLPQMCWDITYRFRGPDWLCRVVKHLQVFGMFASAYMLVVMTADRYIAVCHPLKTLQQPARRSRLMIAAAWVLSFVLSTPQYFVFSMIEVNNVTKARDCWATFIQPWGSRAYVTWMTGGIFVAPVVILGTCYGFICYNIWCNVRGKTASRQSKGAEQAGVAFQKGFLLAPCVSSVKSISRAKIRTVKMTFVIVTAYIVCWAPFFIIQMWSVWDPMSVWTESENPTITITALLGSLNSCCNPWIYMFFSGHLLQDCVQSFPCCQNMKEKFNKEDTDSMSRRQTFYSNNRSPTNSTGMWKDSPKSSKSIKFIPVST

[11] = 50 mg/kg/day p.o. in divided doses

Row | SMILES | attenuation of TNBS-induced fall in body weight (% change in body weight at Day 0) ([1]; 50 mg/kg/day p.o. in divided doses b.i.d.) | reduction in area of macroscopic colonic injury ([1]; 50 mg/kg/day p.o. in divided doses, 72 h after TNBS) | reduction in colon weight [1, 11] | reduction in colonic MPO activity [1, 11] | reduction in colonic TNF-α levels [1, 11] | % Inhibition of Control Specific Binding [2] [%] | inhibition at 10 µM [3] [%] | % Inhibition of Control Values [4] [%] | % Inhibition of Control Specific Binding [5] [%] | % Inhibition of Control Values [6] [%] | inhibition at 10 µM [7] [%] | % Inhibition of Control Specific Binding [8] [%] | % Inhibition of Control Values [9] [%] | inhibition at 10 µM [10] [%]
1 | O=C(O)c1cc(/N=N/c2ccc(S(=O)(=O)Nc3ccccn3)cc2)ccc1O [sulfasalazine, reference compound] | reached statistical significance at Day 1, 2 and 3 | significantly (P<0.001) reduced the extent of macroscopic injury | significant (P<0.05) reduction in colon weight | significantly reduced the elevated colonic levels of MPO | significantly reduced the elevated colonic levels of TNF-α |  |  |  |  |  |  |  |  | 
2 | N#Cc1ccc2c(ccn2CCCCCB(O)O)c1 [Example 20, 5-(5-cyano-1H-indol-1-yl)pentylboronic acid] |  |  |  |  |  | 13 | 3 | 95 | −4 | 1 | 40 | 3 | 94 | 24
